We go through 3 molecules from publication PMC3848914, “Histone deacetylase (HDAC) inhibitory and antiproliferative activities of phenolic-rich extracts derived from the rhizome of Hydnophytum formicarum Jack.: sinapinic acid acts as HDAC inhibitor” (BMC Complementary and Alternative Medicine, 2013).

Assay [1] has as its system HeLa cells. The assay is described as follows: Apoptosis analysis (Annexin V/PI flow cytometry) in HeLa cells. The class given is cell-based, human. The conditions noted are these: 6 h-treatment. The procedure: Apoptosis analysis was performed by using a Vybrant Apoptosis Assay Kit #2 (Molecular Probes, Invitrogen Corporation, Carlsbad, CA, U.S.A.) according to the manufacturer’s instructions. Briefly, cells were seeded at 1.2 × 10^6 cells/4 ml in a 4.5-cm dish, incubated for 24 hours, and treated with different concentrations of the extracts or sinapinic acid for 6 hours. Cells were harvested by trypsinization, washed with cold PBS, and resuspended in the Annexin-binding buffer. Cell density was determined and diluted in the annexin-binding buffer to 10^5 cells per assay. Cells were incubated with Alexa Fluor 488 Annexin V and Propidium iodide (PI) at room temperature for 15 minutes. Following the incubation, cells were analyzed by flow cytometry using a Beckman Coulter Cytomics FC500 MPL flow cytometry (Beckman Coulter, Miami, FL, U.S.A.). The flow cytometry results were confirmed by viewing the cells under a fluorescence microscope.
On the technique in general: A flow cytometer gives signals particle by particle.

Assay [2] has as its target HDAC enzymes (HeLa nuclear extract). The experiment in a line: In vitro HDAC inhibition activity assay (Fluor-de-Lys kit). It counts as biochemical, human. The procedure:
HDAC inhibitory activity of the H. formicarum Jack. rhizome extracts, sinapinic acid (Sigma) and sodium butyrate (Sigma) was determined by using the Fluor-de-Lys HDAC activity assay kit (Biomol, Enzo Life Sciences International, Inc., Plymount Meeting, PA, U.S.A.). The assay was performed according to the manufacturer’s instructions. Fluorescence was measured using a spectra Max Gemini XPS microplate spectrofluorometer (Molecular Devices, Sunnyvale, CA, U.S.A.) with excitation at 360 nm and emission at 460 nm. Inhibition of HDAC activity was monitored by a decrease in fluorescence signal.
The effect of various polarity extracts including fractionated solvent extracts from hexane soluble fraction, ethyl acetate soluble fraction, methanol soluble fraction and also ethanolic crude extract on in vitro HDAC activity was examined by using HeLa nuclear extract as a source of the HDAC enzymes.

Assay [3] deals with histone H4 acetylation in HeLa cells. The experiment in a line: HDAC inhibition in HeLa cells: histone acetylation by AUT gel electrophoresis. It counts as cell-based, human. To be noted: 6 h-treatment. The protocol: Cells grown in a 4.5-cm dish were treated with either solvent control or the sample for 6 hours, and the histone proteins were then isolated according to the Abcam’s protocol (Abcam Inc., Cambridge, MA, U.S.A.) with some modifications. In brief, cells were harvested by trypsinization, washed with PBS, and then resuspended in Triton Extraction Buffer (TEB; PBS containing 0.5% (v/v) Triton X-100, 2 mM phenylmethylsulfonyl fluoride, 0.02% (w/v) NaN3) at a cell density of 10^5 cells/ml. The cells were incubated on ice and agitated periodically for 10 minutes. The suspension was centrifuged at 7,500 rpm for 10 minutes at 4°C to spin down the nuclei and the supernatant was discarded. The nuclei pellet was resuspended in 0.2 M HCl at a density of 10^6 nuclei/ml and incubated overnight at 4°C. […] Protein concentration was measured by using a Bio-Rad protein assay kit (Bio-Rad Laboratories, Hercules, CA, U.S.A.) based on the Bradford method.
Inhibition on acetylation of cellular histones was analyzed by gel electrophoresis using acid urea/Triton-X-100 (AUT) gels. […]
HDAC inhibition by ethanolic crude extract, phenolic-rich extract and sinapinic acid in HeLa cells was analyzed by AUT gel electrophoresis, whereby each cellular core histone (H2A, H2B, H3, and H4) with different extent of acetylation can be separated. […]

A further assay has as its system Vero cells. The assay is described as follows: Antiproliferative activity assay (WST-8), Vero cells. It counts as cell-based. The conditions noted are these: compounds. The protocol: (§1) Cells were seeded in a 96-well plate at cell density of 10^4 cells/well and incubated for 24 hours. Sample groups were treated with different concentrations of H. formicarum Jack. rhizome extracts (0.5-3.0 mg/mL), sinapinic acid (0.5-3.0 mM), or sodium butyrate (0.5-3.0 mM) for 24, 48 and 72 hours. Vehicle control groups were added with DMSO (final concentration of 0.05%) or double distilled water. Cell proliferation assays were performed using a WST-8 Cell Proliferation Assay Kit (BioVision, Mountain View, CA, U.S.A.) according to the manufacturer’s instructions. Absorbance (A) was measured at 415 nm using a microtiter plate reader (Bio-Rad Laboratories, Hercules, CA, U.S.A.). The absorbance at 655 nm was used as a reference wavelength. Cell proliferation or cell growth was determined as a percentage of the vehicle control by an equation of;
(§2) %CellProliferation=controlA‒sampleA/controlA×100.

Assay [4] concerns HeLa cells. The experiment in a line: Antiproliferative activity assay (WST-8), HeLa cells. The class given is cell-based, human. The conditions noted are these: compounds. The procedure: as §1, §2
For orientation: Tetrazolium assays rely on reduction of a dye to a coloured formazan, in cell work by metabolically active cells.

Another assay deals with HT29 cells. The experiment in a line: Antiproliferative activity assay (WST-8), HT29 cells. To be noted: compounds. It counts as cell-based, human. The procedure:
as §1, §2

Another assay relates to HCT116 cells. The experiment in a line: Antiproliferative activity assay (WST-8), HCT116 cells. It counts as cell-based, human. To be noted: compounds. The protocol: as §1, §2
Another assay deals with MCF-7 cells. The experiment in a line: Antiproliferative activity assay (WST-8), MCF-7 cells. The class given is cell-based, human. The conditions noted are these: compounds. The procedure:
as §1, §2

Another assay deals with Jurkat cells. The experiment in a line: Antiproliferative activity assay (WST-8), Jurkat cells. It counts as cell-based, human. To be noted: compounds. The procedure:
as §1, §2

Setting [5] is: 72 h, read-out: IC50 values, HeLa cells 72 h.

Where two headings read alike, the source gives them in different places.

For `CC[C@@]1(O)C(=O)OCc2c1cc1n(c2=O)Cc2cc3ccccc3nc2-1` [Camptothecin], in the assay on HeLa cells [1] (0.1 mg/mL), the “Number of Late Apoptotic cells (%)” value stood at 3.55 ± 1.06%.

As for `COc1cc(/C=C/C(=O)O)cc(OC)c1O` [Sinapinic acid, sinapinic acid], the IC50 – broadly, the concentration that inhibits the measured activity by half – in assay [2] was 2270 ± 130 µM; in the assay with Vero cells (Chlorocebus sabaeus, Vero, 24 h, read-out: IC50 values, Vero cells 24 h), over 3000 µM; with Vero cells (Chlorocebus sabaeus, Vero, 48 h, read-out: IC50 values, Vero cells 48 h), over 3000 µM; in the assay with Vero cells (Chlorocebus sabaeus, Vero, 72 h, read-out: IC50 values, Vero cells 72 h) it was over 3000 µM; in the assay on HeLa cells [4] (Homo sapiens, HeLa, 24 h, 24 h, read-out: IC50 values, HeLa cells 24 h), 2350 ± 30 µM; in the assay with HeLa cells [4] (Homo sapiens, HeLa, 48 h, 48 h, read-out: IC50 values, HeLa cells 48 h), 2040 ± 60 µM. Moreover, the 50% inhibitory concentration (IC50) was 910 ± 20 µM in the assay with HeLa cells [4] (Homo sapiens, HeLa, 72 h, 72 h, read-out: IC50 values, HeLa cells 72 h); 900 ± 20 µM in the assay with HeLa cells [4] (setting [5]); 2970 ± 50 µM in the assay with HT29 cells (Homo sapiens, HT-29, 24 h, read-out: IC50 values, HT29 cells 24 h); 2200 ± 30 µM in the assay with HT29 cells (Homo sapiens, HT-29, 48 h, read-out: IC50 values, HT29 cells 48 h); 1600 ± 20 µM with HT29 cells (Homo sapiens, HT-29, 72 h, read-out: IC50 values, HT29 cells 72 h); over 3000 µM with HCT116 cells (Homo sapiens, HCT-116, 24 h, read-out: IC50 values, HCT116 cells 24 h). The IC50 in the assay with HCT116 cells (Homo sapiens, HCT-116, 48 h, read-out: IC50 values, HCT116 cells 48 h) is 2200 ± 150 µM; in the assay on HCT116 cells (Homo sapiens, HCT-116, 72 h, read-out: IC50 values, HCT116 cells 72 h) it was 2100 ± 60 µM; in the assay on MCF-7 cells (Homo sapiens, MCF7, 24 h, read-out: IC50 values, MCF-7 cells 24 h) it was over 3000 µM; with MCF-7 cells (Homo sapiens, MCF7, 48 h, read-out: IC50 values, MCF-7 cells 48 h), over 3000 µM; in the assay with MCF-7 cells (Homo sapiens, MCF7, 72 h, read-out: IC50 values, MCF-7 cells 72 h), over 3000 µM; in the assay on Jurkat cells (Homo sapiens, Jurkat, 24 h, read-out: IC50 values, Jurkat cells 24 h), over 3000 µM. In addition, the IC50 with Jurkat cells (Homo sapiens, Jurkat, 48 h, read-out: IC50 values, Jurkat cells 48 h) was over 3000 µM; with Jurkat cells (Homo sapiens, Jurkat, 72 h, read-out: IC50 values, Jurkat cells 72 h) it was 2800 ± 120 µM. Moreover, the “Histone H4 acetylation in HeLa cells (in words)” value in [3] was “clearly increased di- and tri-acetylated H4 molecules”. Besides, the “Number of Early Apoptotic cells (%)” value is 4.40 ± 1.27% in the assay on HeLa cells [1] (4.5 mM); 8.40 ± 1.55% in the assay on HeLa cells [1] (9.0 mM); 8.4% with HeLa cells [1] (9.0 mM, listed as sinapinic acid). The entries for the “Number of Late Apoptotic cells (%)” value in the assay on HeLa cells [1] (4.5 mM) and in the assay on HeLa cells [1] (9.0 mM) were 1.75 ± 0.78% and 3.25 ± 1.06%, respectively.

As for `CCCC(=O)[O-].[Na+]` [Sodium butyrate, sodium butyrate], the 50% inhibitory concentration (IC50) in [2] was 970 ± 70 µM; in the assay on Vero cells (24 h, read-out: IC50 values, Vero cells 24 h), over 3000 µM; in the assay with Vero cells (48 h, read-out: IC50 values, Vero cells 48 h) it was over 3000 µM; with Vero cells (72 h, read-out: IC50 values, Vero cells 72 h), over 3000 µM; with HeLa cells [4] (24 h, read-out: IC50 values, HeLa cells 24 h) it was 2630 ± 60 µM; in the assay with HeLa cells [4] (48 h, read-out: IC50 values, HeLa cells 48 h), 2220 ± 130 µM. For the same molecule, the IC50 in the assay on HeLa cells [4] (72 h, listed as sodium butyrate, read-out: IC50 values, HeLa cells 72 h) is 1220 ± 30 µM; in the assay on HeLa cells [4] (setting [5]) it was 1200 ± 30 µM; with HT29 cells (24 h, read-out: IC50 values, HT29 cells 24 h), over 3000 µM; in the assay on HT29 cells (48 h, read-out: IC50 values, HT29 cells 48 h), over 3000 µM; with HT29 cells (72 h, read-out: IC50 values, HT29 cells 72 h), 2570 ± 30 µM; in the assay on HCT116 cells (24 h, read-out: IC50 values, HCT116 cells 24 h), over 3000 µM. Besides, the IC50 is 2200 ± 200 µM in the assay on HCT116 cells (48 h, read-out: IC50 values, HCT116 cells 48 h); 2000 ± 50 µM in the assay with HCT116 cells (72 h, read-out: IC50 values, HCT116 cells 72 h); over 3000 µM with MCF-7 cells (24 h, read-out: IC50 values, MCF-7 cells 24 h); over 3000 µM in the assay with MCF-7 cells (48 h, read-out: IC50 values, MCF-7 cells 48 h); over 3000 µM with MCF-7 cells (72 h, read-out: IC50 values, MCF-7 cells 72 h); over 3000 µM in the assay with Jurkat cells (24 h, read-out: IC50 values, Jurkat cells 24 h). Also, the IC50 in the assay on Jurkat cells (48 h, read-out: IC50 values, Jurkat cells 48 h) was found to be 2360 ± 190 µM; with Jurkat cells (72 h, read-out: IC50 values, Jurkat cells 72 h) it was 1500 ± 300 µM. The “Number of Early Apoptotic cells (%)” value in the assay with HeLa cells [1] (4.5 mM) is 3.75 ± 1.06%; in the assay with HeLa cells [1] (9.0 mM), 7.60 ± 1.27%; with HeLa cells [1] (9.0 mM, listed as sodium butyrate), 7.6%. Further, the “Number of Late Apoptotic cells (%)” value is listed as 1.00 ± 0.28% in the assay with HeLa cells [1] (4.5 mM) and 2.05 ± 1.06% in the assay with HeLa cells [1] (9.0 mM).
